From US10124065B2, “Lipids and lipid compositions for the delivery of active agents” (Novartis AG, priority 2013, dated 2018)

Columns and labels:
[1] = Particle size of lipid nanoparticle (dynamic light scattering, Malvern Zetasizer); format: physicochemical
Summary of the method: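 Sizes are average diameters of fully formed nanoparticles measured by dynamic light scattering. Samples were diluted in PBS to a count rate of about 200–400 kcts. Values are intensity-weighted Z-average sizes.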

[2] = Measurement of mRNA encapsulation (Quant-iT Ribogreen); format: physicochemical; conditions: leptin mRNA in lipid nanoparticles (cationic lipid, DSPC, cholesterol, stealth lipid)
Procedure: All equipment and disposable supplies were certified free of RNase activity by the manufacturer or rendered RNase free by use of the RNaseZap reagent (LifeTechnologies). mRNA was encapsulated at a cationic lipid amine to mRNA phosphate (N:P) molar ratio of 4:1. Lipids (cationic lipid, DSPC, cholesterol and lipidated PEG or stealth lipid) were dissolved in ethanol. The molar ratios were […], respectively. The mixture was sonicated briefly, then gently agitated for 5 minutes and then maintained at 37° C. until use. mRNA was exchanged into citrate buffer pH 5.8-6.0 by use of Amicon Ultra-15 centrifugal concentrators, and the final concentration was adjusted to 0.5 mg/ml and held at 37° C. until use. An equal volume of lipids in ethanol, mRNA in citrate buffer, and citrate buffer alone were drawn into disposable syringes. Tubing leading from syringes containing lipids and mRNA are attached to the T junction, and tubing leading from the syringe containing citrate buffer alone was paired with the tubing exiting the T-junction over a collection vessel containing a stir bar on an active stir plate. Syringes were placed in a syringe pump set to expel contents at a flow rate of 1 ml per minute.
The pump was activated, and the collected mRNA in lipid nanoparticles was transferred to SnakeSkin dialysis tubing (10,000 MWCO, Thermo Scientific). Material was dialyzed against RNAse- and pyrogen-free 1× phosphate buffered saline overnight at 4° C.
Percent encapsulation of mRNA in lipid nanoparticles was determined using the Quant-iT Ribogreen RNA Assay kit (Life Technologies). The LNP-mRNA suspension was assayed in buffer (mRNA outside the particle), and buffer plus Triton X-100 detergent (total mRNA). The difference calculated was the mRNA inside the particle. A 1000 ng/mL stock from the RNA provided in the kit was prepared and used to generate a standard curve (0 ng/ml, 15.63-1000 ng/ml) in TE and TE+0.75% Triton X-100. LNP-mRNA samples in TE buffer and TE buffer+0.75% Triton X-100 were prepared with appropriate dilution so that reading was in the range of standard curve (400-2,000 fold). In a 384-well plate (Costar non-treated #3573) 0.04 ml of standard (in duplicate) or sample (in triplicate) were added per well. Ribogreen reagent was diluted 240-fold in TE buffer and added 0.06 ml per well. The contents of wells were mixed and fluorescence was measured (excitation=480 nm, emission=520 nm). Background values (no RNA) were subtracted from standard and test sample values and the concentrations of RNA were determined in the samples using the standard curves. The percent encapsulation of the sample was determined by dividing the difference in concentrations between sample+triton and sample in buffer alone by the sample+triton concentration.

human leptin = assay: Mouse intravenous tail vein injection of modified synthetic leptin mRNA, human leptin ELISA; format: in vivo, C57BL/6 mouse; conditions: human leptin in mouse plasma, 10 μg leptin mRNA
Procedure: Before the tail vein injection, mouse body weights were recorded and diet weighted, with mice grouped according to their body weights. Mice were prepared by warming them under a heating lamp for ˜2 minutes, with the mice about 12 inches from heat lamp.
For the tail vein injection procedure, the mice were placed in a restrainer and their tails cleaned with 70% alcohol. A 27 gauge needle (Becton Dickinson, Catalogue #305109) connected with a 1 ml syringe (Becton Dickinson, Catalogue #309659) was inserted into the tail vein, with bevel facing up, and the syringe plunger was pulled backwards to ensure blood is drawn into the syringe. The desired volume of modified synthetic leptin mRNA was injected by hand with moderate pressure and speed. The needle was then withdrawn and bleeding stopped by adding pressure to injection site with gauze.
Single housed, 8-9 week old, male C57BL/6 mice were used for the in vivo study. FPLC purified modified synthetic leptin mRNA (SEQ ID NO: 5) in which the uridines were substituted with pseudouridine was packaged in a cationic lipid (N:P molar ratio=8:1) and then were diluted in injectable saline at a dose of 10 μg per average group body weight.
On day 0, animals were weighed and sorted according to average body weight. Mice were dosed, and food intake (FI) was recorded, on each of days 1-7 and days 9, 11, and 16.
Human leptin in mouse plasma was measured by ELISA. Antibodies purchased from the R&D Systems duoset (Cat# DY398E, part#840279 for capture antibody and part#840280 for detection antibody) were reconstituted using PBS and titered, again using PBS. The capture antibody was coated at 4 ug/ml in 30 ul/well on a white Nunc® Maxisorp 384 well plate (Cat#460372). After an overnight incubation at room temperature the capture antibody was aspirated and the plate blocked for 2 hours at room temperature with 90 ul/well of KPL milk blocker (Cat#50-82-00). Once the incubation was completed the plate was aspirated and recombinant standards and samples were added to the plate at 30 ul/well for 2 hours at 37° C. while shaking at 600 rpm. Sample/standard dilutions were made using casein sample diluent. Washing/aspiration 3 times with 100 ul/well followed, using Teknova plate wash solution (Cat# P1192). Next, detection antibody was diluted using casein detection antibody diluent to 12.5 ng/ml and added at 30 ul/well for 2 hours room temperature. After this incubation, the plate was washed again and a solution of poly-streptavidin-HRP (Cat#21140) at a 1:1250 dilution in HRP dilution buffer was added to each well (30 ul/well) and incubated for 30 minutes room temperature. A final wash/aspiration removed the HRP solution and a chemiluminescent substrate was added at 30 ul/well (Cat#1859678 & 1859679). The plate was quickly read using a SpectramaxM5 plate reader with a 50 ms integration time. The dynamic range of the ELISA is from 100-2,000 pg/ml (6.25-125 pM) of human leptin.

[3] = Polydispersity index (PDI) of lipid nanoparticle (dynamic light scattering); format: physicochemical
Procedure: Unless indicated otherwise, all PDIs referred to herein are the PDI of the fully formed nanoparticle, as measured by dynamic light scattering on a Malvern Zetasizer. The nanoparticle sample was diluted in phosphate buffered saline (PBS) so that the count rate was approximately 200-400 kcts. The data is presented in Tables 4 and 5 as a weighted average of the intensity measure.

[4] = FVII siRNA LNP, Chol/DSPC/S010, molar ratio 45/44/9/2, Z-average
[5] = leptin mRNA lipid nanoparticles
[6] = FVII siRNA LNP, Chol/DSPC/S010, molar ratio 45/44/9/2

SMILES | Size (nm) [1, 4] [nm] | Size (nm) [1, 5] [nm] | % encapsulation [2] [%] | Leptin expression IV-C57BI/6, 24 h (human leptin) [ng/mL] | PDI [3, 6] | PDI [3, 5] | Leptin expression IV-C57BI/6 (ng/mL), 6 h (human leptin; 6 h)
CCCCCCCC(=O)OCCCCCCCCCCOC(=O)CCC(=O)OCc1cc(COC(=O)CCC(=O)OCCCCCCCCCCOC(=O)CCCCCCC)cc(CN(C)C)c1 [Example 78, O,O′-((5-((dimethylamino)methyl)-1,3-phenylene)bis(methylene))bis(10-(octanoyloxy)decyl)disuccinate] | 178.2 | 164.0 | 71.1 | 0.96 | 0.043 | 0.150 | –
CCCCCCCCCOC(=O)CCCCCCC(=O)OCc1cc(COC(=O)CCCCCCC(=O)OCCCCCCCCC)cc(CN(C)C)c1 [Example 79, O′^1,O^1-((5-((dimethylamino)methyl)-1,3-phenylene)bis(methylene)) 8-dinonyl dioctanedioate] | – | 140.5 | 91.6 | – | – | 0.116 | 1.36 (6 h) ng/mL
CCCCCCCCCCCCOC(=O)CCCCCOc1cc(CN(C)C)cc(OCCCCCC(=O)OCCCCCCCCCCCC)c1 [Example 90, didodecyl 6,6′-((5-((dimethylamino)methyl)-1,3-phenylene)bis(oxy))dihexanoate] | 87.54 | 164.7 | 80.9 | 0.74 | 0.073 | 0.090 | –
